Experimental data as given in PMC10938439, “C-3 Steroidal Hemiesters as Inhibitors of 17β-Hydroxysteroid Dehydrogenase Type 10” (ACS Omega, 2024).
Values joined by “and” are separate entries in the source; they are usually repeats but may differ in a detail not shown here. Identical values can stand only once.

Assays:
[1] = target: T1, 17β-HSD10 (Homo sapiens, UniProt Q99714); experiment: Inhibition type determination with respect to substrate 17β-estradiol (Hanes–Woolf plot); format: biochemical; settings: compound at 3, 6 and 9 μM, 17β-estradiol 12.5–75 μM, NAD+ 500 μM
T1 construct: inferred from Ni-NTA purification with imidazole elution; made in house; host or cells: E. coli BL21 (DE3)
T1 sequence (Q99714 1-261): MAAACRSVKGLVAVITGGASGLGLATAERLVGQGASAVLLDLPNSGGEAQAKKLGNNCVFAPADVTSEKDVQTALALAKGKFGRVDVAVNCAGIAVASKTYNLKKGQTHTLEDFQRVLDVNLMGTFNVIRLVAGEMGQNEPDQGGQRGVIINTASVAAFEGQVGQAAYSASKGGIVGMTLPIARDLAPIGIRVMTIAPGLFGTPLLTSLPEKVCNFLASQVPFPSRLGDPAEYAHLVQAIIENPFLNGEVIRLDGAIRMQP
Procedure: The uninhibited enzymatic reaction (0 μM 23) was compared with the enzymatic reaction at three concentrations of compound 23 (3, 6, and 9 μM) using 17β-estradiol as the substrate. […] Such inhibitor binds the enzyme preventing the formation of the enzyme–substrate complex. […] This hypothesis was confirmed by the kinetic experiment. The obtained data were linearized by using Hanes–Woolf plot (Figure 2).
The type of inhibition of compound 23 was determined with respect to the substrate 17β-estradiol. The inhibitor was determined at three different concentrations (3, 6, and 9 μM) in combination with different concentrations of 17β-estradiol (12.5–75 μM) and a saturated NAD^+ concentration (500 μM). As vehicle control, DMSO was used. The obtained data were analyzed using GraphPad Prism 8.4.3 (GraphPad Software Inc.). All measurements were performed in triplicate.

[2] = system: Caco-2 cells; design: method as in PMID 30296546; settings: cited from earlier work
[3] = target: T2, 17β-HSD10 overexpressed in HEK-293 (HEK-293-HSD10 cell line) (Homo sapiens, UniProt Q99714); experiment: Fluorogenic (−)–CHANA assay for cellular inhibition of 17β-HSD10; format: cell-based; settings: HEK-293-HSD10, (−)–CHANA probe
T2 construct: expressed in transfected cells; host or cells: HEK-293 (HEK-293-HSD10)
T2 sequence (Q99714 1-261): T1 sequence (Q99714 1-261)
Procedure: Identical concentrations of compound 23 were used for fluorogenic cellular assay using a special probe (−)–CHANA as a substrate for 17β-HSD10 overexpressed in HEK-293 (HEK-293-HSD10 cell line).[15] […] The exact IC50 value at the cellular level was not possible to determine because of some method interferences, as well as its unknown cytotoxic characteristics. Higher IC50 (>20 μM) is in agreement with the high concentration of 17β-HSD10 in the model cell line.[15]
A previously published cell line with overexpressed 17β-HSD10 (HEK-293-HSD10)[15] was used to measure 17β-HSD10 inhibition in the cellular environment. For this purpose, the (−)–CHANA fluorogenic probe was used. The cells (density 1 × 10^4 cells per well) were seeded in DMEM (200 μL) without phenol red (Gibco). […] The changes in fluorescent intensities were measured immediately after (-)-CHANA addition and 2 h later. The fluorescence intensities of the CHANK product were taken by using the TECAN SPARK 10 M instrument (Ex/Em = 380/525 nm). The residual 17β-HSD10 activity was calculated as ΔF between 2 and 0 h after (-)-CHANA treatment, and the data were normalized between nontreated HEK-293-HSD10 and native, nontransfected HEK-293 controls (using relative response ratio). […]

[4] = target: T1, 17β-HSD10; experiment: Inhibition of 17β-estradiol to estrone transformation by purified recombinant 17β-HSD10 (NADH fluorescence); format: biochemical; settings: purified recombinant 17β-HSD10, 17β-estradiol as substrate; means ± SEM (n = 4)
Procedure: As standards, we used the known inhibitor AG18051 as the positive control and the published steroidal compounds,[18] namely, pregnenolone, testosterone, dihydrotestosterone, androsterone, epiandrosterone, and dehydroepiandrosterone.
17β-HSD10 was performed as described previously.[11] Briefly, the autoinduction and overexpression were performed at 25 °C for 18 h in the E. coli BL21 (DE3) strain. The bacterial pellet was resuspended in lysis buffer that consisted of sodium phosphate buffer ([…]), NaCl (150 mM), and imidazole (10 mM, pH 8.0) with 1 mg/mL lysozyme and benzonase (150 U/mL). cOmplete EDTA-free protease inhibitor cocktail was incubated for 20 min on ice and then sonicated (12 × 10 s pulses with 30 s pauses). The supernatant was applied to the Ni-NTA agarose resin after centrifugation (16 000g, 10 min, 4 °C). Then, the solution was incubated on ice for 1 h with gentle stirring.
The standard steroids were screened at 1 and 10 μM concentrations, and the tested compounds and standard AG18051 were screened at 10 μM concentration. For compounds with at least 50% inhibition of 17β-HSD10, the IC50 values were determined.
Steroid stock solutions (5 mM) were further diluted with DMSO to the working concentrations. DMSO was used as a vehicle control, and AG18051 was used as a control inhibitor. The enzyme activity was determined fluorometrically at 37 °C in the activity assay buffer [100 mM potassium phosphate buffer (pH 8.0)]. The general reaction mixture (200 μL per well) consisted of 17β-estradiol (25 μM, DMSO), NAD+ (500 μM, deionized water), recombinant 17β-HSD10 (45 nM), and different concentrations of inhibitor (2.2% (v/v) final concentration of DMSO as solvent). Before the addition of substrate, the reaction mixture of enzyme, cofactor, and inhibitor in the assay buffer was preincubated for 5 min at 37 °C. The increase of fluorescence (Ex/Em = 340/460 nm) due to the formation of NADH was monitored for 20 min (30 s intervals). For IC50 value determination, dose–response inhibition at 11 different concentrations of inhibitor (0.6–33.75 μM) was determined and the data were analyzed by GraphPad Prism 8.4.3 (GraphPad Software Inc.). All measurements were performed in a tetraplicate.

[5] = design: method as in PMID 30296546; settings: cited from earlier work

In the case of `C[C@@]12CCC[C@H]1[C@@H]1CC=C3C[C@@H](OC(=O)CCCCC(=O)O)CC[C@]3(C)[C@H]1CC2` [Compound 23, Androst-5-en-3β-yl Hemiadipate], the type of inhibition [1] is listed as “competitive”, the “Caco-2 cell permeability (50 μM) Papp” value [2] is listed as 3.1 × 10^–6 cm/s and the inhibition at 25 µM ([3]; HEK293, highest concentration 25 μM, read-out: inhibition of 17β-HSD10 activity in cells) is listed as roughly 50%. The IC50 ([3]; exact value not determinable, read-out: IC50 at the cellular level) was greater than 20 µM, the IC50 [4] was ~5.59 µM and 5.59 µM and the “rat plasma stability, % remaining after 8 h” value [5] was 32%.
